From patent publication US11168083B2, “Inhibitors of Plasma Kallikrein and uses thereof” (Takeda Pharmaceutical Company Limited, priority 2017, dated 2021)
Read-outs that look alike come from different tables or passages of the source.

Legend:
Type in all cases: biochemical
[1] = target: human activated kallikrein enzyme (Homo sapiens (Human), UniProt P03952); experiment: Inhibition of human activated kallikrein enzyme, fluorogenic peptide substrate assay (two formats); conditions: read-out: pKal EC50
Sequence of human activated kallikrein enzyme (P03952 391-638): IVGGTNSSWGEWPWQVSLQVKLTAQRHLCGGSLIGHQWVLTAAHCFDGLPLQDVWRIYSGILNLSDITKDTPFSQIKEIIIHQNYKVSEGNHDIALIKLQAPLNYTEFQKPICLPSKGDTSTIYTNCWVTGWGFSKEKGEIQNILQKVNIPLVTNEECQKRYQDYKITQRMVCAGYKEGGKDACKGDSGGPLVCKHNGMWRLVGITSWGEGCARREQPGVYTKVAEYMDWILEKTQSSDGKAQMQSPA
Sequence of human activated kallikrein enzyme (P03952 20-390 partner): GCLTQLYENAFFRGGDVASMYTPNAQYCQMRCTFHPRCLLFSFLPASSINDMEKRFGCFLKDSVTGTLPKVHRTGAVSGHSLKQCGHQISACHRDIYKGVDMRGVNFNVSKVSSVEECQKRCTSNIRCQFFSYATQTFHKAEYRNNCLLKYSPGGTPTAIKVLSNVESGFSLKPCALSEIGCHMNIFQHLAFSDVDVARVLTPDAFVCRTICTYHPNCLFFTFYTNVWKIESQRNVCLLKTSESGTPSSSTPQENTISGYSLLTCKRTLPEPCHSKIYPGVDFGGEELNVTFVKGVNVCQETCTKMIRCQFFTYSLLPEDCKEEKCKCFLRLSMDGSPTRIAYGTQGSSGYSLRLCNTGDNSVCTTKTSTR
Summary of the method: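 Fluorogenic Pro-Phe-Arg-AMC substrate (300 uM) in 20 mM Tris pH 7.5, 150 mM NaCl, 1 mM EDTA, 0.1% PEG-400, 0.1% Triton X-100; enzyme and inhibitor preincubated 30 min at room temperature. Format one: 500 pM enzyme, 10 min reaction; format two: 5 pM enzyme, 18 hr reaction. Fluorescence read at 380 nm excitation/460 nm emission.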

Trypsin = experiment: Selectivity screen of serine proteases, anti-target panel: Trypsin
Protocol: (§1) Compounds 11, 33, and 53 were evaluated in a selectivity screen of serine proteases.

Thrombin = Thrombin (Homo sapiens (Human), UniProt P00734); experiment: Selectivity screen of serine proteases, anti-target panel: Thrombin
Protocol: as §1

FXa = FXa (Homo sapiens (Human), UniProt P00742); experiment: Selectivity screen of serine proteases, anti-target panel: FXa
Sequence of FXa (P00742 235-488): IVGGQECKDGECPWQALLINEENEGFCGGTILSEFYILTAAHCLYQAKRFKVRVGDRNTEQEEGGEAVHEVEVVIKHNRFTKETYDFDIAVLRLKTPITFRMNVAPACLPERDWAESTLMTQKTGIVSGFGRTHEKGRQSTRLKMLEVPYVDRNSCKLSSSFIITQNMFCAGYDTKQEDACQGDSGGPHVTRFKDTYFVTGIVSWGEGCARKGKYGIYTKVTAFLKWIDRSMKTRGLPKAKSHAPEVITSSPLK
Sequence of FXa (P00742 41-179 partner): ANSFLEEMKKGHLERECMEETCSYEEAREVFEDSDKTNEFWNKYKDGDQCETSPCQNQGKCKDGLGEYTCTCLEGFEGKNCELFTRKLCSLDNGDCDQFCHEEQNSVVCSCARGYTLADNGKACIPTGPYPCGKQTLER
Protocol: as §1

[2] = test system: selected anti-target proteases; experiment: Selectivity screen of serine proteases (overall statement); conditions: none showed any inhibitory activity of the anti-target proteases
Protocol: as §1

Elastase = experiment: Selectivity screen of serine proteases, anti-target panel: Elastase
Protocol: as §1

[3] = Table 2, column head prints nM, ranges defined in μM

With `CNC(=O)[C@H](CCCCNC(=N)N)NC(=O)c1csc([C@@H]2C[C@@H](N)CN2C(=O)c2cn3cc(Cl)ccc3n2)n1` [Compound 11, 2-((2S,4R)-4-amino-1-(6-chloroimidazo[1,2-a]pyridine-2-carbonyl)pyrrolidin-2-yl)-N—((S)-6-guanidino-1-(methylamino)-1-oxohexan-2-yl)thiazole-4-carboxamide] the EC50 [1, 3] was no more than 100 nM, the EC50 ([1]; Table 3) was 32 nM and the IC50 (Trypsin) was greater than 100 µM. The IC50 (Thrombin) was greater than 10 µM, the IC50 (FXa) was greater than 10 µM and the “Selectivity for pKal over selected anti-target proteases” value (shortened to “Selectivity for pKal”) [2] was “selective inhibitors of pKal”. It also gave an IC50 (Elastase) greater than 10 µM.

In the case of `Nc1nccc2cc(CCNC(=O)c3csc([C@@H]4C[C@@H](N)CN4C(=O)c4cn5cc(Cl)ccc5n4)n3)ccc12` [Compound 53, 2-((2S,4R)-4-amino-1-(6-chloroimidazo[1,2-a]pyridine-2-carbonyl)pyrrolidin-2-yl)-N-(2-(1-aminoisoquinolin-6-yl)ethyl)thiazole-4-carboxamide], the EC50 [1, 3] is reported as no more than 100 nM, the EC50 ([1]; Table 3) is reported as 15 nM and the IC50 (Trypsin) is reported as greater than 100 µM. The IC50 (Thrombin) was greater than 10 µM, the IC50 (FXa) was greater than 10 µM and the “Selectivity for pKal” value [2] was “selective inhibitors of pKal”. The IC50 (Elastase) was greater than 10 µM.

Work on `CNC(=O)[C@H](CCCCNC(=N)N)NC(=O)c1csc([C@@H]2C[C@@H](N)CN2C(=O)c2ccc3nc(Cl)ccc3c2)n1` [Compound 67, 2-((2S,4R)-4-amino-1-(2-chloroquinoline-6-carbonyl)pyrrolidin-2-yl)-N—((S)-6-guanidino-1-(methylamino)-1-oxohexan-2-yl)thiazole-4-carboxamide] yielded an EC50 [1, 3] of 1000 to 5000 nM.

Work on `CNC(=O)[C@H](CCCNC(=N)N)NC(=O)c1csc([C@@H]2C[C@@H](N)CN2C(=O)c2cn3cc(Cl)ccc3n2)n1` [Compound 28, 2-((2S,4R)-4-amino-1-(6-chloroimidazo[1,2-a]pyridine-2-carbonyl)pyrrolidin-2-yl)-N—((S)-5-guanidino-1-(methylamino)-1-oxopentan-2-yl)thiazole-4-carboxamide] yielded an EC50 [1, 3] of 5000 to 9900 nM.

Molecule `CNC(=O)[C@H](CCCCNC(=N)N)NC(=O)c1csc([C@H]2C[C@H](O)CN2C(=O)c2cn3cc(Cl)ccc3n2)n1` [Compound 7, 2-((2R,4S)-1-(6-Chloroimidazo[1,2-a]pyridine-2-carbonyl)-4-hydroxypyrrolidin-2-yl)-N—((S)-6-guanidino-1-(methylamino)-1-oxohexan-2-yl)thiazole-4-carboxamide] has an EC50 [1, 3] greater than 9900 nM.

With `Cc1cc2c(N)nccc2c(C)c1CNC(=O)c1csc([C@@H]2C[C@@H](N)CN2C(=O)c2cn3cc(Cl)ccc3n2)n1` [Compound 60, 2-((2S,4R)-4-amino-1-(6-chloroimidazo[1,2-a]pyridine-2-carbonyl)pyrrolidin-2-yl)-N-((1-amino-5,7-dimethylisoquinolin-6-yl)methyl)thiazole-4-carboxamide] the EC50 [1, 3] was no more than 100 nM.

Molecule `CNC(=O)[C@H](CCCCNC(=N)N)NC(=O)c1csc([C@@H]2C[C@@H](N)CN2C(=O)c2cc3ccc(Cl)cc3s2)n1` [Compound 62, 2-((2S,4R)-4-amino-1-(6-chlorobenzo[b]thiophene-2-carbonyl)pyrrolidin-2-yl)-N—((S)-6-guanidino-1-(methylamino)-1-oxohexan-2-yl)thiazole-4-carboxamide] has an EC50 [1, 3] of 100 to 1000 nM.

`CNC(=O)[C@@H](CCCCNC(=N)N)NC(=O)c1csc([C@@H]2C[C@@H](O)CN2C(=O)c2cn3cc(Cl)ccc3n2)n1` [Compound 39, 2-((2S,4R)-1-(6-Chloroimidazo[1,2-a]pyridine-2-carbonyl)-4-hydroxypyrrolidin-2-yl)-N—((R)-6-guanidino-1-(methylamino)-1-oxohexan-2-yl)thiazole-4-carboxamide] showed an EC50 [1, 3] of 5000 to 9900 nM.

Work on `CNC(=O)[C@H](CCCCNC(=N)N)NC(=O)c1csc([C@@H]2C[C@H](N)CN2C(=O)c2cn3cc(Cl)ccc3n2)n1` [Compound 36, 2-((2S,4S)-4-amino-1-(6-chloroimidazo[1,2-a]pyridine-2-carbonyl)pyrrolidin-2-yl)-N—((S)-6-guanidino-1-(methylamino)-1-oxohexan-2-yl)thiazole-4-carboxamide] yielded an EC50 [1, 3] of no more than 100 nM.

`CNC(=O)[C@H](Cc1c[nH]c2ccccc12)NC(=O)c1csc([C@@H]2C[C@@H](N)CN2C(=O)c2cn3cc(Cl)ccc3n2)n1` [Compound 31, N—((S)-3-(1H-indol-3-yl)-1-(methylamino)-1-oxopropan-2-yl)-2-((2S,4R)-4-amino-1-(6-chloroimidazo[1,2-a]pyridine-2-carbonyl)pyrrolidin-2-yl)thiazole-4-carboxamide] was tested, and the EC50 [1, 3] was greater than 9900 nM.

Work on `CNC(=O)[C@H](CCCCNC(=N)N)NC(=O)c1csc([C@@H]2C[C@@H](N)CN2C(=O)c2cn3cc(C(F)(F)F)ccc3n2)n1` [Compound 19, 2-((2S,4R)-4-amino-1-(6-(trifluoromethyl)imidazo[1,2-a]pyridine-2-carbonyl)pyrrolidin-2-yl)-N—((S)-6-guanidino-1-(methylamino)-1-oxohexan-2-yl)thiazole-4-carboxamide] yielded an EC50 [1, 3] of no more than 100 nM.

In the case of `CNC(=O)[C@H](CCCCNC(=N)N)NC(=O)c1csc([C@@H]2CCCN2C(=O)c2cn3cc(Cl)ccc3n2)n1` [Compound 33, 2-((S)-1-(6-Chloroimidazo[1,2-a]pyridine-2-carbonyl)pyrrolidin-2-yl)-N—((S)-6-guanidino-1-(methylamino)-1-oxohexan-2-yl)thiazole-4-carboxamide], the EC50 [1, 3] is reported as 1000 to 5000 nM, the EC50 ([1]; Table 3) is reported as 3240 nM and the IC50 (Trypsin) is reported as greater than 100 µM. The IC50 (Thrombin) was greater than 10 µM, the IC50 (FXa) was greater than 10 µM and the “Selectivity for pKal” value [2] was “selective inhibitors of pKal”. It also gave an IC50 (Elastase) greater than 10 µM.

Molecule `N=C(N)NCCCCCNC(=O)c1csc([C@@H]2C[C@@H](N)CN2C(=O)c2cn3cc(Cl)ccc3n2)n1` [Compound 46, 2-((2S,4R)-4-amino-1-(6-chloroimidazo[1,2-a]pyridine-2-carbonyl)pyrrolidin-2-yl)-N-(5-guanidinopentyl)thiazole-4-carboxamide] has an EC50 [1, 3] of 100 to 1000 nM.
